Reference: PubChem BioAssay AID248 (DTP/NCI, 2004)
Where “and” joins values, the source holds several entries; their conditions need not be identical. Equal entries are not always repeated. Toxic doses and inconclusive results are not listed. Cut-off read from the data, not from the text of the source: active = T/C of 150% or more; inactive = T/C below 125%.

Tested on: L1210 leukemia ip in BDF1 mice, survival T/C
Assay: NCI In Vivo Anticancer Drug Screen. Data for tumor model L1210 Leukemia (intraperitoneal) in B6D2F1 (BDF1) mice
Conditions: endpoint: mean survival time, higher = longer survival
Procedure, shortened: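 Value reflects the ratio of survival in compound-treated mice to survival in vehicle-treated controls, with both groups carrying the same transplanted tumor.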

[1] = dose: 12.5 mg/kg/injection, schedule: Q01DX009 (ip), vehicle: saline with Tween-80
[2] = dose: 25.0 mg/kg/injection, schedule: Q01DX009 (ip), vehicle: saline with Tween-80
[3] = dose: 50.0 mg/kg/injection, schedule: Q01DX009 (ip), vehicle: saline with Tween-80
[4] = dose: 100.0 mg/kg/injection, schedule: Q01DX001 (ip), vehicle: saline
[5] = dose: 200.0 mg/kg/injection, schedule: Q01DX001 (ip), vehicle: saline
[6] = dose: 100.0 mg/kg/injection, schedule: Q04DX003 (ip), vehicle: saline with Tween-80
[7] = dose: 200.0 mg/kg/injection, schedule: Q04DX003 (ip), vehicle: saline with Tween-80
[8] = dose: 400.0 mg/kg/injection, schedule: Q04DX003 (ip), vehicle: saline with Tween-80
[9] = dose: 100.0 mg/kg/injection, schedule: Q01DX009 (ip), vehicle: saline
[10] = dose: 100.0 mg/kg/injection, schedule: Q04DX003 (ip), vehicle: saline
[11] = dose: 200.0 mg/kg/injection, schedule: Q01DX009 (ip), vehicle: saline
[12] = dose: 200.0 mg/kg/injection, schedule: Q04DX003 (ip), vehicle: saline
[13] = dose: 100.0 mg/kg/injection, schedule: Q01DX009 (ip), vehicle: saline with Tween-80
[14] = dose: 200.0 mg/kg/injection, schedule: Q01DX009 (ip), vehicle: saline with Tween-80
[15] = dose: 400.0 mg/kg/injection, schedule: Q01DX009 (ip), vehicle: saline with Tween-80
[16] = dose: 400.0 mg/kg/injection, schedule: Q01DX001 (ip), vehicle: saline
[17] = dose: 400.0 mg/kg/injection, schedule: Q01DX009 (ip), vehicle: saline
[18] = dose: 400.0 mg/kg/injection, schedule: Q04DX003 (ip), vehicle: saline
[19] = dose: 100.0 mg/kg/injection, schedule: Q01DX009 (ip), vehicle: Klucel (hydroxypropylcellulose) (HPC)
[20] = dose: 200.0 mg/kg/injection, schedule: Q01DX009 (ip), vehicle: Klucel (hydroxypropylcellulose) (HPC)
[21] = dose: 100.0 mg/kg/injection, schedule: Q01DX001 (ip), vehicle: carboxymethylcellulose (CMC)
[22] = dose: 200.0 mg/kg/injection, schedule: Q01DX001 (ip), vehicle: carboxymethylcellulose (CMC)
[23] = dose: 400.0 mg/kg/injection, schedule: Q01DX001 (ip), vehicle: carboxymethylcellulose (CMC)
[24] = dose: 100.0 mg/kg/injection, schedule: Q04DX003 (ip), vehicle: Klucel (hydroxypropylcellulose) (HPC)
[25] = dose: 200.0 mg/kg/injection, schedule: Q04DX003 (ip), vehicle: Klucel (hydroxypropylcellulose) (HPC)
[26] = dose: 400.0 mg/kg/injection, schedule: Q04DX003 (ip), vehicle: Klucel (hydroxypropylcellulose) (HPC)

Measured: T/C

O=C(CC(=O)C(F)(F)C(F)(F)C(F)(F)F)c1csc2ccccc12
inactive: dose: 8.0 mg/kg/injection, schedule: Q01DX015 (ip), vehicle: saline 87 % of control | [1] 109 % of control | dose: 16.0 mg/kg/injection, schedule: Q01DX015 (ip), vehicle: saline 87 % of control | [2] 108 % of control | dose: 32.0 mg/kg/injection, schedule: Q01DX015 (ip), vehicle: saline 87 % of control | [3] 96 % of control | dose: 50.0 mg/kg/injection, schedule: Q04DX003 (ip), vehicle: acetone 101 % of control | [4] 104 % of control | [5] 102 % of control

O=C1CC(N2C(=O)C3C4CCC(CC4)C3C2=O)C(=O)N1 (centres undefined)
inactive: [6] 96 % of control | [7] 100 % of control | [8] 112 % of control

CCOP(=S)(OCC)SC(C)C
inactive: [6] 97 % of control | [7] 97 % of control

CC(=O)Nc1ncnn1C(C)=O
inactive: dose: 50.0 mg/kg/injection, schedule: Q01DX009 (ip), vehicle: saline 97 % of control | [9] 96 % of control | [10] 98 % of control | [11] 97 % of control | [12] 95 % of control

C[CH2][Sn](=[S])[S][Sn](=[S])[CH2]C
inactive: dose: 100.0 mg/kg/injection, schedule: Q04DX002 (ip), vehicle: saline with Tween-80 102 % of control | dose: 200.0 mg/kg/injection, schedule: Q04DX002 (ip), vehicle: saline with Tween-80 94 % of control | dose: 400.0 mg/kg/injection, schedule: Q04DX002 (ip), vehicle: saline with Tween-80 97 % of control

Nc1cccc(NC=O)c1
inactive: [2] 102 % of control | [3] 104 % of control

COC(=O)CCN(c1ccccc1)c1ccc(C)cc1
inactive: [13] 91 % of control | [14] 92 % of control | [15] 92 % of control

C=C1CC2(C)C(=O)CCCC2OC1=O (centres undefined)
inactive: dose: 25.0 mg/kg/injection, schedule: Q01DX001 (ip), vehicle: saline 91 % of control | dose: 50.0 mg/kg/injection, schedule: Q01DX001 (ip), vehicle: saline 100 % of control | dose: 100.0 mg/kg/injection, schedule: Q01DX001 (ip), vehicle: saline with Tween-80 102 % of control | [4] 106 % of control

CCC1(NS(=O)(=O)c2ccc(N)cc2)C(=O)N(C)C(=O)N(C)C1=O
inactive: [4] 94 % of control | [5] 94 % of control | [16] 91 % of control

CC(Br)C(Br)CO (centres undefined)
inactive: [9] 103 % of control | [11] 102 % of control | [17] 100 % of control

CCN(CC)C1CCC(NC(C)=O)CC1 (centres undefined)
inactive: [9] 108 % of control | [10] 105 % of control and 97 % of control | [11] 107 % of control | [12] 96 % of control and 99 % of control | [17] 86 % of control | [18] 101 % of control

O=C(O)c1c(Br)c(Br)c(Br)c(Br)c1C(=O)Nc1ccccc1C(F)(F)F
inactive: [19] 101 % of control | [20] 93 % of control

C=C(C)[C@@H]1CC[C@@H](C)C[C@H]1O
inactive: [4] 103 % of control | [5] 100 % of control | [16] 105 % of control

CCCCN(CCCC)CC(O)c1ccc2cc(Cl)cc(Cl)c2n1 (centres undefined)
inactive: dose: 6.25 mg/kg/injection, schedule: Q01DX009 (ip), vehicle: saline with Tween-80 94 % of control | dose: 6.25 mg/kg/injection, schedule: Q04DX003 (ip), vehicle: saline with Tween-80 98 % of control | [1] 98 % of control | dose: 12.5 mg/kg/injection, schedule: Q04DX003 (ip), vehicle: saline with Tween-80 95 % of control | [2] 98 % of control | dose: 25.0 mg/kg/injection, schedule: Q04DX003 (ip), vehicle: saline with Tween-80 95 % of control

CC(=O)CC(=O)C(F)(F)F.CC(=O)CC(=O)C(F)(F)F.CC(=O)CC(=O)C(F)(F)F.[Ru]
inactive: [21] 96 % of control | [22] 94 % of control | [23] 88 % of control

CCCN(CCC)CCSC(=S)NCCOC
inactive: dose: 4.0 mg/kg/injection, schedule: Q01DX001 (sc), vehicle: olive oil, sesame oil, peanut oil 110 % of control | dose: 8.0 mg/kg/injection, schedule: Q01DX001 (sc), vehicle: olive oil, sesame oil, peanut oil 112 % of control | dose: 16.0 mg/kg/injection, schedule: Q01DX001 (sc), vehicle: olive oil, sesame oil, peanut oil 116 % of control | dose: 32.0 mg/kg/injection, schedule: Q01DX001 (sc), vehicle: olive oil, sesame oil, peanut oil 118 % of control | dose: 50.0 mg/kg/injection, schedule: Q01DX001 (ip), vehicle: olive oil, sesame oil, peanut oil 96 % of control | dose: 50.0 mg/kg/injection, schedule: Q01DX009 (ip), vehicle: acetone 93 % of control | dose: 100.0 mg/kg/injection, schedule: Q01DX001 (ip), vehicle: acetone 110 % of control | dose: 100.0 mg/kg/injection, schedule: Q01DX001 (ip), vehicle: olive oil, sesame oil, peanut oil 92 % of control | dose: 100.0 mg/kg/injection, schedule: Q01DX009 (ip), vehicle: acetone 101 % of control | dose: 200.0 mg/kg/injection, schedule: Q01DX001 (ip), vehicle: acetone 104 % of control | dose: 200.0 mg/kg/injection, schedule: Q01DX001 (ip), vehicle: olive oil, sesame oil, peanut oil 103 % of control | dose: 400.0 mg/kg/injection, schedule: Q01DX001 (ip), vehicle: olive oil, sesame oil, peanut oil 88 % of control

CS(=O)(=O)CCS(=O)(=O)c1cccs1
inactive: dose: 50.0 mg/kg/injection, schedule: Q01DX009 (ip), vehicle: Klucel (hydroxypropylcellulose) (HPC) 103 % of control | [19] 102 % of control | [24] 110 % of control | [25] 112 % of control | [26] 111 % of control

OCCCCCCCCCCCO
inactive: [10] 100 % of control | [12] 93 % of control | [18] 93 % of control

COc1ccc(C(=O)/C=C/c2ccccc2O)cc1
inactive: dose: 75.0 mg/kg/injection, schedule: Q04DX003 (ip), vehicle: saline 104 % of control | dose: 150.0 mg/kg/injection, schedule: Q04DX003 (ip), vehicle: saline 101 % of control | dose: 300.0 mg/kg/injection, schedule: Q04DX003 (ip), vehicle: saline 96 % of control

CCCCCCCCCCCCCCCCOc1ccccc1C(C)=O
inactive: [13] 92 % of control | [6] 89 % of control | [14] 96 % of control | [7] 98 % of control | [15] 93 % of control | [8] 93 % of control

CCCn1/c(=N\N=O)sc2ccccc21
inactive: [24] 93 % of control | [25] 95 % of control | [26] 92 % of control

CSc1ccc(OC(C)=O)cc1C
inactive: [4] 106 % of control | [5] 98 % of control | [16] 96 % of control

O=P(Cc1ccccc1)(N1CCOCC1)N1CCOCC1
inactive: [10] 100 % of control | [12] 93 % of control | [18] 104 % of control

CCCCOC(=O)c1ccc(NC(=O)Nc2ccc(F)c([N+](=O)[O-])c2)cc1
inactive: [19] 98 % of control | [20] 95 % of control | dose: 400.0 mg/kg/injection, schedule: Q01DX009 (ip), vehicle: Klucel (hydroxypropylcellulose) (HPC) 101 % of control

CC(=O)Nc1c(Cl)c(Cl)c(Cl)c2c1-c1ccc(Cl)cc1C2
inactive: [21] 92 % of control | [22] 101 % of control | [23] 97 % of control

COC(=O)CNC(=O)C1CSC(C)(C)N1C=O (centres undefined)
inactive: [10] 104 % of control | [12] 101 % of control | [18] 98 % of control
